Experimental data published in ChEMBL document CHEMBL5625261, “Cytotoxic effects of kinetin riboside and its selected analogues on cancer cell lines” (Bioorg Med Chem Lett, 2024).

system: HeLa; experiment: Cytotoxicity against human HeLa cells assessed as reduction in cell viability incubated for 72 hrs by MTT assay; type: functional, cell-based; conditions: not given

Row | SMILES | IC50 [µM]
1 | OC[C@H]1O[C@@H](n2cnc3c(NCc4ccoc4)ncnc32)[C@H](O)[C@@H]1O | > 100
2 | OC[C@H]1O[C@@H](n2cnc3c(NCc4ccco4)ncnc32)[C@@H](O)[C@@H]1O | > 100
3 | OC[C@H]1O[C@@H](n2nnc3c(NCc4ccco4)ncnc32)[C@H](O)[C@@H]1O | 4.6
4 | OC[C@H]1O[C@@H](n2cnc3c(NCc4cccs4)ncnc32)[C@H](O)[C@@H]1O | > 100

system: MIA PaCa-2; experiment: Cytotoxicity against human MIA PaCa-2 cells assessed as reduction in cell viability incubated for 72 hrs by MTT assay; type: functional, cell-based; conditions: MIA PaCa-2, 72 h

Row | SMILES | IC50 [µM]
5 | OC[C@H]1O[C@@H](n2cnc3c(NCc4ccoc4)ncnc32)[C@H](O)[C@@H]1O | 1.1
6 | OC[C@H]1O[C@@H](n2cnc3c(NCc4ccco4)ncnc32)[C@@H](O)[C@@H]1O | > 100
7 | OC[C@H]1O[C@@H](n2nnc3c(NCc4ccco4)ncnc32)[C@H](O)[C@@H]1O | 1.1
8 | OC[C@H]1O[C@@H](n2cnc3c(NCc4cccs4)ncnc32)[C@H](O)[C@@H]1O | 1.1

system: MIA PaCa-2; experiment: Cytotoxicity against human MIA PaCa-2 cells assessed as reduction in cell viability incubated for 48 hrs by MTT assay; type: functional, cell-based; conditions: MIA PaCa-2, 48 h

Row | SMILES | IC50 [µM]
9 | OC[C@H]1O[C@@H](n2cnc3c(NCc4ccoc4)ncnc32)[C@H](O)[C@@H]1O | 1.4
10 | OC[C@H]1O[C@@H](n2cnc3c(NCc4ccco4)ncnc32)[C@@H](O)[C@@H]1O | > 100
11 | OC[C@H]1O[C@@H](n2nnc3c(NCc4ccco4)ncnc32)[C@H](O)[C@@H]1O | 2.8
12 | OC[C@H]1O[C@@H](n2cnc3c(NCc4cccs4)ncnc32)[C@H](O)[C@@H]1O | 1.2

system: Caco-2; experiment: Cytotoxicity against human Caco-2 cells assessed as reduction in cell viability incubated for 48 hrs by MTT assay; type: functional, cell-based; conditions: Caco-2, 48 h

Row | SMILES | IC50 [µM]
13 | OC[C@H]1O[C@@H](n2cnc3c(NCc4ccoc4)ncnc32)[C@H](O)[C@@H]1O | 13.1
14 | OC[C@H]1O[C@@H](n2cnc3c(NCc4ccco4)ncnc32)[C@@H](O)[C@@H]1O | > 100
15 | OC[C@H]1O[C@@H](n2nnc3c(NCc4ccco4)ncnc32)[C@H](O)[C@@H]1O | 18.7
16 | OC[C@H]1O[C@@H](n2cnc3c(NCc4cccs4)ncnc32)[C@H](O)[C@@H]1O | 10.5

system: Caco-2; experiment: Cytotoxicity against human Caco-2 cells assessed as reduction in cell viability incubated for 24 hrs by MTT assay; type: functional, cell-based; conditions: Caco-2, 24 h

Row | SMILES | IC50 [µM]
17 | OC[C@H]1O[C@@H](n2cnc3c(NCc4ccoc4)ncnc32)[C@H](O)[C@@H]1O | 18.5
18 | OC[C@H]1O[C@@H](n2cnc3c(NCc4ccco4)ncnc32)[C@@H](O)[C@@H]1O | > 100
19 | OC[C@H]1O[C@@H](n2nnc3c(NCc4ccco4)ncnc32)[C@H](O)[C@@H]1O | 25
20 | OC[C@H]1O[C@@H](n2cnc3c(NCc4cccs4)ncnc32)[C@H](O)[C@@H]1O | 16.9

system: not listed separately; experiment: Cytotoxicity against human MRC5 cells assessed as reduction in cell viability incubated for 24 hrs by MTT assay; type: toxicity, cell-based; conditions: not given

Row | SMILES | IC50 at 24 h [µM]
21 | OC[C@H]1O[C@@H](n2cnc3c(NCc4ccoc4)ncnc32)[C@H](O)[C@@H]1O | 16
22 | OC[C@H]1O[C@@H](n2cnc3c(NCc4ccco4)ncnc32)[C@@H](O)[C@@H]1O | > 100
23 | OC[C@H]1O[C@@H](n2nnc3c(NCc4ccco4)ncnc32)[C@H](O)[C@@H]1O | > 100
24 | OC[C@H]1O[C@@H](n2cnc3c(NCc4cccs4)ncnc32)[C@H](O)[C@@H]1O | 12.7

system: MIA PaCa-2; experiment: Cytotoxicity against human MIA PaCa-2 cells assessed as reduction in cell viability incubated for 24 hrs by MTT assay; type: functional, cell-based; conditions: MIA PaCa-2, 24 h

Row | SMILES | IC50 [µM]
25 | OC[C@H]1O[C@@H](n2cnc3c(NCc4ccoc4)ncnc32)[C@H](O)[C@@H]1O | > 100
26 | OC[C@H]1O[C@@H](n2cnc3c(NCc4ccco4)ncnc32)[C@@H](O)[C@@H]1O | > 100
27 | OC[C@H]1O[C@@H](n2nnc3c(NCc4ccco4)ncnc32)[C@H](O)[C@@H]1O | > 100
28 | OC[C@H]1O[C@@H](n2cnc3c(NCc4cccs4)ncnc32)[C@H](O)[C@@H]1O | > 100

system: MIA PaCa-2; experiment: Cytotoxicity against human MIA PaCa-2 cells assessed as reduction in cell viability at 100 uM incubated for 24 hrs by MTT assay relative to control; type: functional; conditions: not given

Row | SMILES | Activity [%]
29 | OC[C@H]1O[C@@H](n2cnc3c(NCc4ccoc4)ncnc32)[C@H](O)[C@@H]1O | 40

system: not listed separately; experiment: Cytotoxicity against human MRC5 cells assessed as reduction in cell viability incubated for 48 hrs by MTT assay; type: toxicity, cell-based; conditions: not given

Row | SMILES | IC50 at 48 h [µM]
30 | OC[C@H]1O[C@@H](n2cnc3c(NCc4ccoc4)ncnc32)[C@H](O)[C@@H]1O | 1
31 | OC[C@H]1O[C@@H](n2cnc3c(NCc4ccco4)ncnc32)[C@@H](O)[C@@H]1O | > 100
32 | OC[C@H]1O[C@@H](n2nnc3c(NCc4ccco4)ncnc32)[C@H](O)[C@@H]1O | 11.7
33 | OC[C@H]1O[C@@H](n2cnc3c(NCc4cccs4)ncnc32)[C@H](O)[C@@H]1O | 2.1

system: OVCAR-3; experiment: Cytotoxicity against human OVCAR-3 cells assessed as reduction in cell viability incubated for 72 hrs by MTT assay; type: functional, cell-based; conditions: OVCAR-3, 72 h

Row | SMILES | IC50 [µM]
34 | OC[C@H]1O[C@@H](n2cnc3c(NCc4ccoc4)ncnc32)[C@H](O)[C@@H]1O | 1.8
35 | OC[C@H]1O[C@@H](n2cnc3c(NCc4ccco4)ncnc32)[C@@H](O)[C@@H]1O | > 100
36 | OC[C@H]1O[C@@H](n2nnc3c(NCc4ccco4)ncnc32)[C@H](O)[C@@H]1O | 1.1
37 | OC[C@H]1O[C@@H](n2cnc3c(NCc4cccs4)ncnc32)[C@H](O)[C@@H]1O | 1.5

system: MCF7; experiment: Cytotoxicity against human MCF7 cells assessed as reduction in cell viability incubated for 72 hrs by MTT assay; type: functional, cell-based; conditions: MCF7, 72 h

Row | SMILES | IC50 [µM]
38 | OC[C@H]1O[C@@H](n2cnc3c(NCc4ccoc4)ncnc32)[C@H](O)[C@@H]1O | 2.1
39 | OC[C@H]1O[C@@H](n2cnc3c(NCc4ccco4)ncnc32)[C@@H](O)[C@@H]1O | > 100
40 | OC[C@H]1O[C@@H](n2nnc3c(NCc4ccco4)ncnc32)[C@H](O)[C@@H]1O | 3.8
41 | OC[C@H]1O[C@@H](n2cnc3c(NCc4cccs4)ncnc32)[C@H](O)[C@@H]1O | 2.6

system: MCF7; experiment: Cytotoxicity against human MCF7 cells assessed as reduction in cell viability incubated for 48 hrs by MTT assay; type: functional, cell-based; conditions: MCF7, 48 h

Row | SMILES | IC50 [µM]
42 | OC[C@H]1O[C@@H](n2cnc3c(NCc4ccoc4)ncnc32)[C@H](O)[C@@H]1O | 2.2
43 | OC[C@H]1O[C@@H](n2cnc3c(NCc4ccco4)ncnc32)[C@@H](O)[C@@H]1O | > 100
44 | OC[C@H]1O[C@@H](n2nnc3c(NCc4ccco4)ncnc32)[C@H](O)[C@@H]1O | 4.3
45 | OC[C@H]1O[C@@H](n2cnc3c(NCc4cccs4)ncnc32)[C@H](O)[C@@H]1O | 3

system: MIA PaCa-2; experiment: Cytotoxicity against human MIA PaCa-2 cells assessed as reduction in cell viability at 100 uM incubated for 72 hrs by MTT assay relative to control; type: functional; conditions: not given

Row | SMILES | Activity [%]
46 | OC[C@H]1O[C@@H](n2cnc3c(NCc4ccoc4)ncnc32)[C@H](O)[C@@H]1O | ~90

system: not listed separately; experiment: Cytotoxicity against human MRC5 cells assessed as reduction in cell viability incubated for 72 hrs by MTT assay; type: toxicity, cell-based; conditions: not given

Row | SMILES | IC50 at 72 h [µM]
47 | OC[C@H]1O[C@@H](n2cnc3c(NCc4ccoc4)ncnc32)[C@H](O)[C@@H]1O | 0.7
48 | OC[C@H]1O[C@@H](n2cnc3c(NCc4ccco4)ncnc32)[C@@H](O)[C@@H]1O | > 100
49 | OC[C@H]1O[C@@H](n2nnc3c(NCc4ccco4)ncnc32)[C@H](O)[C@@H]1O | 4.6
50 | OC[C@H]1O[C@@H](n2cnc3c(NCc4cccs4)ncnc32)[C@H](O)[C@@H]1O | 1.8

system: HeLa; experiment: Cytotoxicity against human HeLa cells assessed as reduction in cell viability incubated for 48 hrs by MTT assay; type: functional, cell-based; conditions: not given

Row | SMILES | IC50 [µM]
51 | OC[C@H]1O[C@@H](n2cnc3c(NCc4ccoc4)ncnc32)[C@H](O)[C@@H]1O | > 100
52 | OC[C@H]1O[C@@H](n2cnc3c(NCc4ccco4)ncnc32)[C@@H](O)[C@@H]1O | > 100
53 | OC[C@H]1O[C@@H](n2nnc3c(NCc4ccco4)ncnc32)[C@H](O)[C@@H]1O | 14.5
54 | OC[C@H]1O[C@@H](n2cnc3c(NCc4cccs4)ncnc32)[C@H](O)[C@@H]1O | > 100

system: Caco-2; experiment: Cytotoxicity against human Caco-2 cells assessed as reduction in cell viability incubated for 72 hrs by MTT assay; type: functional, cell-based; conditions: Caco-2, 72 h

Row | SMILES | IC50 [µM]
55 | OC[C@H]1O[C@@H](n2cnc3c(NCc4ccoc4)ncnc32)[C@H](O)[C@@H]1O | 6.5
56 | OC[C@H]1O[C@@H](n2cnc3c(NCc4ccco4)ncnc32)[C@@H](O)[C@@H]1O | > 100
57 | OC[C@H]1O[C@@H](n2nnc3c(NCc4ccco4)ncnc32)[C@H](O)[C@@H]1O | 11.5
58 | OC[C@H]1O[C@@H](n2cnc3c(NCc4cccs4)ncnc32)[C@H](O)[C@@H]1O | 5.9

system: HeLa; experiment: Cytotoxicity against human HeLa cells assessed as reduction in cell viability incubated for 24 hrs by MTT assay; type: functional, cell-based; conditions: not given

Row | SMILES | IC50 [µM]
59 | OC[C@H]1O[C@@H](n2cnc3c(NCc4ccoc4)ncnc32)[C@H](O)[C@@H]1O | > 100
60 | OC[C@H]1O[C@@H](n2cnc3c(NCc4ccco4)ncnc32)[C@@H](O)[C@@H]1O | > 100
61 | OC[C@H]1O[C@@H](n2nnc3c(NCc4ccco4)ncnc32)[C@H](O)[C@@H]1O | > 100
62 | OC[C@H]1O[C@@H](n2cnc3c(NCc4cccs4)ncnc32)[C@H](O)[C@@H]1O | > 100

system: MCF7; experiment: Cytotoxicity against human MCF7 cells assessed as reduction in cell viability incubated for 24 hrs by MTT assay; type: functional, cell-based; conditions: MCF7, 24 h

Row | SMILES | IC50 [µM]
63 | OC[C@H]1O[C@@H](n2cnc3c(NCc4ccoc4)ncnc32)[C@H](O)[C@@H]1O | 12
64 | OC[C@H]1O[C@@H](n2cnc3c(NCc4ccco4)ncnc32)[C@@H](O)[C@@H]1O | > 100
65 | OC[C@H]1O[C@@H](n2nnc3c(NCc4ccco4)ncnc32)[C@H](O)[C@@H]1O | 27
66 | OC[C@H]1O[C@@H](n2cnc3c(NCc4cccs4)ncnc32)[C@H](O)[C@@H]1O | 20.8

system: OVCAR-3; experiment: Cytotoxicity against human OVCAR-3 cells assessed as reduction in cell viability incubated for 24 hrs by MTT assay; type: functional, cell-based; conditions: OVCAR-3, 24 h

Row | SMILES | IC50 [µM]
67 | OC[C@H]1O[C@@H](n2cnc3c(NCc4ccoc4)ncnc32)[C@H](O)[C@@H]1O | > 100
68 | OC[C@H]1O[C@@H](n2cnc3c(NCc4ccco4)ncnc32)[C@@H](O)[C@@H]1O | > 100
69 | OC[C@H]1O[C@@H](n2nnc3c(NCc4ccco4)ncnc32)[C@H](O)[C@@H]1O | > 100
70 | OC[C@H]1O[C@@H](n2cnc3c(NCc4cccs4)ncnc32)[C@H](O)[C@@H]1O | > 100

system: OVCAR-3; experiment: Cytotoxicity against human OVCAR-3 cells assessed as reduction in cell viability incubated for 48 hrs by MTT assay; type: functional, cell-based; conditions: OVCAR-3, 48 h

Row | SMILES | IC50 [µM]
71 | OC[C@H]1O[C@@H](n2cnc3c(NCc4ccoc4)ncnc32)[C@H](O)[C@@H]1O | 3.3
72 | OC[C@H]1O[C@@H](n2cnc3c(NCc4ccco4)ncnc32)[C@@H](O)[C@@H]1O | > 100
73 | OC[C@H]1O[C@@H](n2nnc3c(NCc4ccco4)ncnc32)[C@H](O)[C@@H]1O | 76
74 | OC[C@H]1O[C@@H](n2cnc3c(NCc4cccs4)ncnc32)[C@H](O)[C@@H]1O | 2.9
